US20100278837A1, “Compositions And Methods For Reducing Cancer And Inflammation” (The Regents of the University of California, priority 2009, published 2010)

How the values were obtained:
[1] = tested on: CD11b+ myeloid cell adhesion to VCAM-1; experiment: Chemoattractant-stimulated CD11b+ myeloid cell adhesion to VCAM-1 / endothelial cells (Example 9 adhesion assay); format: cell-based, mouse
Description: 1×10^5 calcein-AM labelled human CD11b+ cells isolated from buffy coats from the San Diego Blood Bank or murine CD11b+ cells isolated from naïve (non-tumour bearing) or tumour-bearing mice were incubated on HUVEC monolayers or on plastic plates coated with 5 μg/ml recombinant soluble VCAM-1 or ICAM-1 (R&D Systems) for 30 minutes at 37° C. with humidity in the presence of LLC Tumour Conditioned Medium (TCM) or DMEM containing 200 ng/ml SDF1α, IL1β, IL6, TNFα or VEGF-A (R&D Systems). (SDF-1α and IL-1β were initially titrated to determine the minimum dose required to achieve near maximal stimulation of adhesion). TCM was prepared by incubating LLC cells in serum-free media for 18 h and filtering through 0.22 μm filters. After washing three times with warmed medium, adherent cells were quantified using a plate fluorimeter (GeniosPro, TECAN).
In some adhesion assays, cells were also incubated in 25 μg/ml function-blocking anti-integrin α4β1 (rat anti-murine, PS2 or mouse anti-human, HP2/1, gifts from Biogen-Idec), rat-anti-αM (anti-CD11b, M1/70) and isotype control antibodies (rat IgG2κ or mouse IgG1) or with 0.1 nM-10 μM doses of the small molecule inhibitor of integrin α4, ELN476063 (IC50=10 nM), a gift from Elan^14.
Additionally, labelled cells were incubated with HUVEC and rsVCAM coated plates in the presence of […] or SDF-1α and 1-10 μM inhibitors: pan-PI3 kinase inhibitors ([…], wortmannin), PI3-kinase α inhibitors (PI3K75, PIK2alpha, PI103), PI3-kinase β inhibitor (TGX221), PI3-kinase γ inhibitors (TG100-115, AS605240, AS604850), inert control, PLC inhibitor (U73122), geranylgeranyltransferase (Rap1-selective) inhibitors (GGTI-2147 and GGTI-298) or farnesyltransferase (Ras-selective) inhibitor (FTI-277), Akt inhibitors (Inhibitor X and peptide 18), mTOR inhibitor (rapamycin), ROCK inhibitor (Y27632), MEK inhibitor (PD98059), p38 inhibitor (SB202190), tyrosine kinase inhibitor (genestein) and PKA inhibitors (H89, KT5720). LY294002, wortmannin, genestein, U73122, GGTI-2147, GGTI-298, FTI-277, Y27632, PD98059, SB202190, H89 and KT5720 were from Calbiochem. PIK2alpha, PI103, AS605240, AS604850 and TGX221 were from Echelon. TG100-115 was prepared as described^25-26. To titrate the effect of various signalling protein inhibitors on myeloid cell adhesion stimulated by IL-1β or SDF-1α, cells were incubated in 1 nm to 100 μM PI3-kinase inhibitors TG00020 (a pan-PI3-kinase inhibitor), PI3-kinase α inhibitor (PI3Kalpha2) PI3-kinase β inhibitor (TGX221), PI3-kinase γ inhibitors (TG100-115, AS605240), an inert chemically matched control, farnesyltrasnferase inhibitors and geranylgeranyltransferase inhibitors. IC50s for GGTI and FTI were 1 μM. […] Adherent GFP+ cells were automatically quantified using MetaMorph software (Molecular Devices Software).

CD11b+ myeloid cells = experiment: Adoptive transfer: arrest of pretreated CD11b+ myeloid cells in LLC tumours; format: in vivo; details: adoptively transferred into LLC tumour-bearing mice
Description: Alternatively, 5×10^6 CFSE labelled CD11b+ cells from C57BL/6, α4Y991A, and PI3-kinase γ−/− mice were injected intravenously into mice bearing subcutaneous (5×10^5) d14 LLC tumours. In other studies, CD11b+ cells from WT mice were treated for 1 h with 1 μM PI3-kinase α inhibitor (PI3K75), PI3-kinase β inhibitor (TGX221), PI3-kinase γ inhibitor (TG100-115) and an inert control or with 10 μM PLC inhibitor (U73122), geranylgeranyltransferase inhibitor (GGT2147) or farnesyltransferase inhibitor (FTI-277) and then injected intravenously into mice bearing subcutaneous (5×10^5) d14 LLC tumours.
In other studies, K, N and H Ras, Rap1, PI3Kα, PI3Kβ, PI3Kγ, PI3Kδ, integrin α4 and integrin αM were knocked down by siRNA transfection of CD11b+ cells as described above. 48 h later, cells were labeled with CFSE and injected into mice with d14 LLC tumours (1×10^6 cells). Fluorescent cells accumulating in tumours and spleens were quantified 2 h and 24 h later by excising tissues, preparing single cell suspensions and performing FACs analysis at 488 nm. No differences were observed between untreated and non-silencing siRNA treated cells.

LLC tumours = experiment: Subcutaneous LLC tumour growth, inflammation and angiogenesis in treated mice; format: in vivo, C57BL/6 mice; details: daily dosing
Description: LLC cells were obtained from the American Type Culture Collection (ATCC) and Panc02 pancreatic ductal carcinoma cells were obtained from the NCI DCTDC Tumour Repository. The abdominal cavities of immunocompetent C57Bl6 mice and integrin α4Y991A knockin mice^30 were opened and the tails of the pancreas were exteriorized. One million Panc02 cells were injected into the pancreatic tail, the pancreas was placed back into the abdominal cavity and the incision was closed. Tumours were excised after 30 days. 5×10^5 LLC cells were injected subcutaneously or by intravenous tail vein injection into C57Bl6 or integrin α4Y991A mice. Tumours were excised at 7, 14 or 21 days, cryopreserved in O.C.T., lysed for RNA purification or collagenase-digested for flow cytometric analysis of CD11b and Gr1 expression. […] Tumours were harvested, weighed and further analyzed on day 8. […]
PI3-kinase γ inhibitor studies: C57BL/6 mice were subcutaneously implanted on d1 with 5×10^5 LLC or by intradermal injection with 5×10^5 B16 melanoma cells. […] Tumour volumes, weights and blood vessel densities, as well as myeloid cell densities were measured. […] Tumours were excised, weighed and analyzed after 3 weeks. […] Mice were sacrificed at 9 weeks of age and tumours were analyzed.

| IC50 ([1]; stimulated by IL-1β or SDF-1α, read-out: IC50, myeloid cell adhesion) [µM] | Structure (SMILES) | adhesion, ligand binding and integrin conformational changes ([1]; chemokine-stimulated myeloid cells) | myeloid cell arrest in tumours in vivo (CD11b+ myeloid cells) | LLC tumour growth (LLC tumours) |
| --- | --- | --- | --- | --- |
| 1 | COC(=O)[C@H](CCSC)NC(=O)c1ccc(NC[C@@H](N)CS)cc1-c1ccccc1 [FTI] | blocked adhesion, ligand binding and integrin conformational changes | suppressed myeloid cell arrest in tumours in vivo |  |
|  | O=C1NC(=O)/C(=C\c2ccc3nccnc3c2)S1 [AS605240] |  |  | suppressed tumour growth at similar doses |
